From patent US7846955B2, “Salt” (AstraZeneca AB, priority 2007, dated 2010)
Where a name gives a salt, the structure may show the parent alone.

Assays:
[1] = biological target: human muscarinic receptors (M3) (Homo sapiens, UniProt P20309); assay: Muscarinic Receptor Radioligand Binding Assay (SPA, [3H]-NMS); settings: human M3 membranes on SPA beads, 16 hours incubation, read-out: M3 binding pIC50 (converted)
Method: The inhibitory effects of compounds of the napadisylate salt were determined by a Muscarinic Receptor Radioligand Binding Assay. Radioligand binding studies were carried out in Scintillation Proximity Assay (SPA) format utilising [3H]-N-methyl scopolamine ([3H]-NMS) and cell membranes expressing the human muscarinic receptors (M2 or M3) which were coated onto SPA beads. Coated SPA beads were incubated in 96-well plates in HEPES buffer with [3H]-NMS and M3 antagonist at various concentrations for 16 hours. Radioligand binding was then counted using a Wallac Microbeta scintillation counter.

[2] = Evaluation of deaggregation properties of micronised material (Fine Particle Fraction); assay type: physicochemical; settings: across relative humidity 0-75% RH
Source text: ‘Salt Form A’ was Micronised in a 50 mm jet mill, with ejector pressure 5 bar and milling pressure 1.5-2 bar, giving (90% yield). Particle size of the micronised material as determined by Malvern Laser Diffraction with dry powder feeder was d(0.1) 0.77 μm: d(0.5), 1.45μ: d(0.9): 2.65 μm.

[3] = Gravimetric vapour sorption (GVS) water uptake; assay type: physicochemical; settings: at 80% RH (±0.3%), 25° C.
Method: • XRPD—PANalytical CubiX PRO machine in Ø-Ø configuration over the scan range 2° to 40° 2Ø with 100-second exposure per 0.02° increment. The X-rays were generated by a copper long-fine focus tube operated at 45 kV and 40 mA. The wavelength of the copper X-rays was 1.5418 Å. The Data was collected on zero background holders on which ˜2 mg of the compound was placed. The holder was made from a single crystal of silicon, which had been cut along a non-diffracting plane and then polished on an optically flat finish. The X-rays incident upon this surface were negated by Bragg extinction. • DSC thermograms were measured using a TA Q1000 Differential Scanning Calorimeter, with aluminium pans and pierced lids. The sample weights varied between 0.5 to 5 mg. The procedure was carried out under a flow of nitrogen gas (50 ml/min) and the temperature studied from 25 to 300° C. at a constant rate of temperature increase of 10° C. per minute. • TGA thermograms were measured using a TA Q500 Thermogravimetric Analyser, with platinum pans. The sample weights varied between 1 and 5 mg. The procedure was carried out under a flow of nitrogen gas (60 ml/min) and the temperature studied from 25 to 200° C. at a constant rate of temperature increase of 10° C. per minute. • GVS profiles were measured using a Dynamic Vapour Sorption DVS-1 instrument. […]

Chain of human muscarinic receptors (M3) (P20309 whole entry): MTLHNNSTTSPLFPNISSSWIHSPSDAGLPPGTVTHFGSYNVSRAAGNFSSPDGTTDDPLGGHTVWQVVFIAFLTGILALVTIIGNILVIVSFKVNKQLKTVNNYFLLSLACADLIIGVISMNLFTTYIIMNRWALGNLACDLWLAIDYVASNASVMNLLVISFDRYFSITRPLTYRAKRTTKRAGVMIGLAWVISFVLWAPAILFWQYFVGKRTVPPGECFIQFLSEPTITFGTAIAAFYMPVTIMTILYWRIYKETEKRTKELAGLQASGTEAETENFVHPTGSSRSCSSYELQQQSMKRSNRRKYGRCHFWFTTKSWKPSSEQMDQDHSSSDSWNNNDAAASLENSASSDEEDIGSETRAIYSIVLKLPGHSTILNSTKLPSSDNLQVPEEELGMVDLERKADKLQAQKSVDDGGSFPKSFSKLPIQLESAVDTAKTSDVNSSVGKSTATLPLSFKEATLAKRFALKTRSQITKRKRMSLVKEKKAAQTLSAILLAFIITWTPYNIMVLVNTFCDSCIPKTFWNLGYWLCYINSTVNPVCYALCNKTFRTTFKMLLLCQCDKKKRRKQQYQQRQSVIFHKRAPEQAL

| IC50 [1] | Fine Particle Fraction (FPF) [2] | GVS weight increase [3] | Compound |
| --- | --- | --- | --- |
| 0.158 nM |  |  | C[N+](C)(CCOCc1ccc(Cl)cc1)Cc1cnc([C@](O)(c2ccccc2)C2CCCCC2)o1 [[2-(4-chloro-benzyloxy)-ethyl]-[2-((R)-cyclohexyl-hydroxy-phenyl-methyl)-oxazol-5-ylmethyl]-dimethyl-ammonium] |
|  | > 60% | less than 0.5 % w/w | C[N+](C)(CCOCc1ccc(Cl)cc1)Cc1cnc([C@](O)(c2ccccc2)C2CCCCC2)o1 [Salt Form A, [2-(4-chloro-benzyloxy)-ethyl]-[2-((R)-cyclohexyl-hydroxy-phenyl-methyl)-oxazol-5-ylmethyl]-dimethyl-ammonium hemi-naphthalene-1,5-disulfonate] |
